Bounds are passed on as bounds.

The text below walks through data of US20090291945A1, “CYSTEINE PROTEASE INHIBITORS” (Teijin Pharma Limited, priority 2008, published 2009).

Data set [1] is described as follows: Metabolic stability test using human liver microsome. As to conditions: NADPH, 37° C., 25 minutes versus 0 minute, LC/MS peak area. Type of data set: in vitro ADME. As for the experimental part: For the compounds synthesized according to the method of the above Examples and the compounds of formula (B) (the compounds disclosed in WO2002/070517), the metabolic stability test using the human liver microsome was performed and the residual rate of each compound was calculated.
To a human liver microsome solution (950 μL) was added a test compound solution (10 μL, 100 μM, acetonitrile solution) on an ice bath and the solution was divided into two equal parts, solution A and solution B. Note that the composition of the human liver microsome solution was as follows.
20 mg/mL protein human liver microsome (Xenotech LLC Lenexa, US): 10 μL 500 mM potassium phosphate buffer solution (pH 7.4): 200 μL 10 mM EDTA solution: 100 μL 60 mM MgCl2 solution: 50 μL 100 mM glucose-6-phosphate solution: 50 μL 100 I.U./mL glucose-6-phosphate dehydrogenase solution: 10 μL purified water: 530 μL
To the solution A (480 μL) was added acetonitrile (500 μL) on an ice bath, and then 25 mM NADPH solution (20 μL) was added. After vortexing, the mixture was centrifuged (3,000 rpm) at 4° C. for 10 minutes, and the supernatant was taken as the sample at the reaction time of 0 minute.
To the solution B (480 μL) was added 25 mM NADPH solution (20 μL). The mixture was incubated at 37° C. for 25 minutes. The reaction was quenched with acetonitrile (500 μL) and vortexing. The mixture was centrifuged (3,000 rpm) at 4° C. for 10 minutes, and the supernatant was taken as the sample at the reaction time of 25 minutes.
LC/MS measurement was performed for the samples at the reaction time of 0 minute and the reaction time of 25 minutes. Based on the peak area of the target molecular weight in the MS measurement, the residual rate of the sample at the reaction time of 25 minutes to the sample at the reaction time of 0 minute was calculated in percentage.
A general note: Microsomes from liver hold many membrane-bound enzymes, among them those of drug oxidation.

A further data set has as its target T1, cathepsin K (Homo sapiens, UniProt P43235).
T1 construct: the active enzyme was obtained as the enzyme fraction by using detergent containing lysis buffer; made in house; host or cells: HEK293T (GenHunter Corporation), transient expression; detergent lysate used as enzyme fraction
T1 sequence (P43235 115-329): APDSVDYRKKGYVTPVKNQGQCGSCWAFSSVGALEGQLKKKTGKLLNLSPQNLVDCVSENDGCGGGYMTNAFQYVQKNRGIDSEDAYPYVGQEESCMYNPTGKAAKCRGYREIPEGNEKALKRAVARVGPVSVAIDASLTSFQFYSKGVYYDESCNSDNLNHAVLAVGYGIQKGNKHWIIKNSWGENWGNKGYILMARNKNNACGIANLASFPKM
In words: Cathepsin K inhibitory activity (fluorescent substrate Z-Leu-Arg-MCA). As to conditions: enzyme expressed in HEK293T; 15 min preincubation, 30 min reaction at room temperature, pH 5.5; read-out: Activity Intensity (cathepsin K inhibitory activity, pIC50 class) (converted). Type of data set: biochemical. In short, it runs like this:
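Enzyme was HEK293T-expressed cathepsin K in pH 5.5 acetate buffer with 2 mM DTT, preincubated 15 min at room temperature with compound. Reaction started with Z-Leu-Arg-MCA (solution prepared at 10 μM), run 30 min, and AMC fluorescence read at 355/460 nm. IC50 taken from the curve of % inhibition vs DMSO.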

Regarding `CC[C@@H](CNc1ccc(N2CCC(C(=O)O)CC2)cc1)NC(=O)[C@H](CC(C)C)N[C@@H](Cc1ccccc1)C(F)(F)F` [Compound 153], in data set [1], the “Residual Rate at 25 minutes (%)” value is reported as 53%. On cathepsin K, the IC50 was 3.16 to 31.6 nM.

As for `CC[C@@H](CNc1ccc(OC)cc1OC)NC(=O)[C@H](CC(C)(C)F)N[C@@H](c1ccccc1)C(F)(F)F` [Compound 7, (2S)—N-((1S)-1-{[(2,4-dimethoxyphenyl)amino]methyl}propyl)-2-[((1S)-2,2,2-trifluoro-1-phenylethyl)amino]-4-fluoro-4-methylpentanamide], the “Residual Rate at 25 minutes (%)” value in data set [1] turned out to be 0%. For the same molecule, the IC50 at cathepsin K is at most 3.16 nM.

In the case of `CC[C@@H](CNc1ccc(N2CCC(C(=O)O)CC2)cc1)NC(=O)[C@H](CC(C)(C)F)N[C@@H](c1ccccc1)C(F)(F)F` [Compound 147], the “Residual Rate at 25 minutes (%)” value in data set [1] is 80%. Also, the IC50 at cathepsin K is at most 3.16 nM.

`CC(C)C[C@H](N[C@@H](c1ccccc1)C(F)(F)F)C(=O)N[C@@H](CC#N)CNc1ccc(N2CCOCC2)cc1` [Compound 93]: the “Residual Rate at 25 minutes (%)” value in data set [1] is 63%. In addition, the IC50 on cathepsin K was 3.16 to 31.6 nM.

As to `CC[C@@H](CNc1ccc(OCC(=O)O)cc1OC)NC(=O)[C@H](CC(C)C)N[C@@H](c1ccc(OC)nc1)C(F)(F)F` [Compound 120], in data set [1], the “Residual Rate at 25 minutes (%)” value is 108%. In addition, the IC50 at cathepsin K is at most 3.16 nM.

As to `CC[C@@H](CNc1ccc(OC(F)(F)C(=O)O)cc1OC)NC(=O)[C@H](CC(C)(C)F)N[C@@H](c1ccccc1)C(F)(F)F` [Compound 141], the “Residual Rate at 25 minutes (%)” value in data set [1] stood at 70%. Also, the IC50 on cathepsin K is 31.6 to 10000 nM.

For the molecule `CC[C@@H](CNc1ccc(N2CCO[C@@H](C(=O)O)C2)cc1)NC(=O)[C@H](CC(C)C)N[C@@H](c1ccccc1)C(F)(F)F` [Compound 150], the “Residual Rate at 25 minutes (%)” value in data set [1] worked out at 96%. For the same molecule, the IC50 at cathepsin K is at most 3.16 nM.

Turning to `CC[C@@H](CNc1ccc(OCC(=O)O)cc1OC)NC(=O)[C@H](CC(C)(C)F)N[C@@H](c1ccccc1)C(F)(F)F` [Compound 117, 2-{4-[((2S)-2-{(2S)-2-[((1S)-2,2,2-trifluoro-1-phenylethyl)amino]-4-fluoro-4-methylpentanoylamino}butyl)amino]-3-methoxyphenoxy}acetic acid], in data set [1], the “Residual Rate at 25 minutes (%)” value amounted to 111%. Moreover, the IC50 at cathepsin K was at most 3.16 nM.

In the case of `CC[C@@H](CNc1ccc(N2CCC(C)(C(=O)O)CC2)cc1)NC(=O)[C@H](CC(C)C)N[C@@H](c1ccccc1)C(F)(F)F` [Compound 154], the “Residual Rate at 25 minutes (%)” value in data set [1] is reported as 74%. For the same molecule, the IC50 at cathepsin K is at most 3.16 nM.

Consider `CC[C@@H](CNc1ccc(OCCCC(=O)O)cc1OC)NC(=O)[C@H](CC(C)C)N[C@@H](c1ccccc1)C(F)(F)F` [Compound 155], for which the “Residual Rate at 25 minutes (%)” value in data set [1] came out at 31%. Besides, the IC50 on cathepsin K was at most 3.16 nM.

On to `CC[C@@H](CNc1ccc(N2CCOCC2)cc1)NC(=O)[C@H](CC(C)C)N[C@@H](c1ccc(=O)n(C)c1)C(F)(F)F` [Compound 43], for which, in data set [1], the “Residual Rate at 25 minutes (%)” value came out at 46%. The IC50 at cathepsin K was at most 3.16 nM.

As to `CC[C@@H](CNc1ccc(OC(C)C(=O)O)cc1OC)NC(=O)[C@H](CC(C)(C)F)N[C@@H](c1ccccc1)C(F)(F)F` (stereo partly drawn) [Compound 140, 2-{4-[((2S)-2-{(2S)-2-[((1S)-2,2,2-trifluoro-1-phenylethyl)amino]-4-fluoro-4-methylpentanoylamino}butyl)amino]-3-methoxyphenoxy}propanoic acid], in data set [1], the “Residual Rate at 25 minutes (%)” value is 101%. Moreover, the IC50 on cathepsin K was 3.16 to 31.6 nM.

As to `CC[C@@H](CNc1ccc(N2CCOCC2)cc1)NC(=O)[C@H](CC(C)C)N[C@@H](c1ccc(=O)[nH]c1)C(F)(F)F` [Compound 31], the “Residual Rate at 25 minutes (%)” value in data set [1] is reported as 77%. For the same molecule, on cathepsin K, the IC50 is at most 3.16 nM.

`CC[C@@H](CNc1ccc(N2CCC[C@@H](C(=O)O)C2)cc1)NC(=O)[C@H](CC(C)(C)F)N[C@@H](c1ccccc1)C(F)(F)F` [Compound 152]: in data set [1], the “Residual Rate at 25 minutes (%)” value turned out to be 88%. Also, on cathepsin K, the IC50 was at most 3.16 nM.

Turning to `CC(C)C[C@H](N[C@@H](c1ccccc1)C(F)(F)F)C(=O)N[C@@H](CCN)CNc1ccc(N2CCOCC2)cc1` [Compound 129], in data set [1], the “Residual Rate at 25 minutes (%)” value is recorded as 75%. Further, the IC50 on cathepsin K was 3.16 to 31.6 nM.

Consider `CC[C@@H](CNc1ccc(N2CCC(C(=O)O)CC2)cc1)NC(=O)[C@H](CC(C)C)N[C@@H](c1ccccc1)C(F)(F)F` [Compound 145], for which the “Residual Rate at 25 minutes (%)” value in data set [1] is 88%. Moreover, at cathepsin K, the IC50 was at most 3.16 nM.

Consider `CC[C@@H](CNc1ccc(OC(C)(C)C(=O)O)cc1OC)NC(=O)[C@H](CC(C)(C)F)N[C@@H](c1ccccc1)C(F)(F)F` [Compound 131, 2-{4-[((2S)-2-{(2S)-2-[((1S)-2,2,2-trifluoro-1-phenylethyl)amino]-4-fluoro-4-methylpentanoylamino}butyl)amino]-3-methoxyphenoxy}-2-methylpropanoic acid], for which the “Residual Rate at 25 minutes (%)” value in data set [1] is recorded as 123%. Also, the IC50 on cathepsin K is 3.16 to 31.6 nM.

For `CC(C)C[C@H](N[C@@H](c1ccccc1)C(F)(F)F)C(=O)N[C@@H](CCCN)CNc1ccc(N2CCOCC2)cc1` [Compound 127], in data set [1], the “Residual Rate at 25 minutes (%)” value is 87%. Besides, on cathepsin K, the IC50 was 3.16 to 31.6 nM.

For `CC(C)C[C@H](Nc1cscc1-c1ccc(N2CCNCC2)cc1)C(=O)NCCNc1ccc(OCc2ccccc2)cc1` [B, reference compound], the “Residual Rate at 25 minutes (%)” value in data set [1] worked out at 0%.

As for `COc1ccc(NC[C@H](C)NC(=O)C2(NC(c3ccccc3)C(F)(F)F)CCCCC2)c(OC)c1` (stereo partly drawn) [Compound 110], at cathepsin K, the IC50 was 31.6 to 10000 nM.

With `CCOC(=O)C(F)(F)Oc1ccc(NC[C@H](CC)NC(=O)[C@H](CC(C)(C)F)N[C@@H](c2ccccc2)C(F)(F)F)c(OC)c1` [Compound 111], at cathepsin K, the IC50 is 31.6 to 10000 nM.

Take `COc1ccc(NC[C@H](CC[S+](C)[O-])NC(=O)[C@H](CC(C)C)N[C@@H](c2ccccc2)C(F)(F)F)c(OC)c1` (stereo partly drawn) [Compound 139, (2S)—N-((1S)-1-{[(2,4-dimethoxyphenyl)amino]methyl}-3-(methylsulfinyl)propyl)-2-[((1S)-2,2,2-trifluoro-1-phenylethyl)amino]-4-methylpentanamide]: the IC50 at cathepsin K was 31.6 to 10000 nM.

As for `CC[C@@H](CNc1ccc(OC)cc1OC)NC(=O)[C@H](CC(C)C)N[C@@H](c1ccc(=O)n(C)c1)C(F)(F)F` [Compound 44], the IC50 at cathepsin K is 3.16 to 31.6 nM.

With `CC(C)C[C@H](N[C@@H](c1ccccc1)C(F)(F)F)C(=O)N[C@@H](C)CNc1ccc(N2CCOCC2)cc1` [Compound 71], the IC50 on cathepsin K is at most 3.16 nM.

`CC[C@@H](CNc1ccc(OC)cc1OC)NC(=O)C1(NC(c2ccccc2)C(F)(F)F)CCCCC1` (stereo partly drawn) [Compound 8, N-((1S)-1-{[(2,4-dimethoxyphenyl)amino]methyl}propyl){[(2,2,2-trifluoro-1-phenylethyl)amino]cyclohexyl}carboxamide]: on cathepsin K, the IC50 was 3.16 to 31.6 nM.

With `CC[C@@H](CNc1ccc(OCC(=O)N(C)C)cc1OC)NC(=O)[C@H](CC(C)(C)F)N[C@@H](c1ccccc1)C(F)(F)F` [Compound 134], the IC50 on cathepsin K is at most 3.16 nM.

Turning to `CC[C@@H](CNc1ccc(OC(C)(C)C(=O)O)cc1OC)NC(=O)[C@H](CC(C)(C)F)N[C@@H](Cc1ccccc1)C(F)(F)F` [Compound 132, 2-(4-{[(2S)-2-((2S)-2-{[(1S)-2,2,2-trifluoro-1-benzylethyl]amino}-4-fluoro-4-methylpentanoylamino)butyl]amino}-3-methoxyphenoxy)-2-methylpropanoic acid], the IC50 at cathepsin K was 3.16 to 31.6 nM.

Turning to `CC[C@@H](CNc1ccc(OC(C)C(=O)OC)cc1OC)NC(=O)[C@H](CC(C)(C)F)N[C@@H](c1ccccc1)C(F)(F)F` (stereo partly drawn) [Compound 21, Methyl 2-{4-[((2S)-2-{(2S)-2-[((1S)-2,2,2-trifluoro-1-phenylethyl)amino]-4-fluoro-4-methylpentanoylamino}butyl)amino]-3-methoxyphenoxy}propanoate], the IC50 on cathepsin K was 3.16 to 31.6 nM.

In the case of `CC[C@@H](CNc1ccc(-n2ccnc2)cc1)NC(=O)[C@H](CC(C)C)N[C@@H](c1ccccc1)C(F)(F)F` [Compound 112], the IC50 at cathepsin K was 31.6 to 10000 nM.

For the molecule `CC[C@@H](CNc1ccc(N2CCOCC2)cc1)NC(=O)[C@H](CC(C)C)N[C@@H](c1ccc(N(C)C)cc1)C(F)(F)F` [Compound 35], the IC50 at cathepsin K was at most 3.16 nM.
